Measured values reported in patent US6352958B1, “Cycloimido-substituted benzofused heterocyclic herbicides” (FMC Corporation, priority 1997, dated 2002).

How the values were obtained:
Type in all cases: in vivo
[1] = test system: field corn (Zea mays var. Pioneer 3732); experiment: Preemergence herbicidal activity, corn; settings: Rate of Application 0.3 Kg/Ha, examined after 12-17 days
[2] = test system: common chickweed (Stellaria media); experiment: Preemergence herbicidal activity, chickweed; settings: Rate of Application 0.3 Kg/Ha, examined after 12-17 days
[3] = test system: Johnsongrass (Sorghum halepense); experiment: Preemergence herbicidal activity, johnsongrass; settings: Rate of Application 0.3 Kg/Ha, examined after 12-17 days
[4] = test system: common cocklebur (Xanthium strumarium L.); experiment: Postemergence herbicidal activity, cocklebur; settings: rate of application 0.3 Kg/Ha, rated after 12-17 days
[5] = test system: wheat (Triticum aestivum var. Lew); experiment: Postemergence herbicidal activity, wheat; settings: rate of application 0.3 Kg/Ha, rated after 12-17 days
[6] = test system: morningglory (Ipomea lacunosa or Ipomea hederacea); experiment: Postemergence herbicidal activity, morningglory; settings: rate of application 0.3 Kg/Ha, rated after 12-17 days
[7] = test system: velvetleaf (Abutilon theophrasti); experiment: Preemergence herbicidal activity, velvetleaf; settings: Rate of Application 0.3 Kg/Ha, examined after 12-17 days
[8] = test system: field corn (Zea mays var. Pioneer 3732); experiment: Postemergence herbicidal activity, corn; settings: rate of application 0.3 Kg/Ha, rated after 12-17 days
[9] = test system: common cocklebur (Xanthium strumarium L.); experiment: Preemergence herbicidal activity, cocklebur; settings: Rate of Application 0.3 Kg/Ha, examined after 12-17 days
[10] = test system: velvetleaf (Abutilon theophrasti); experiment: Postemergence herbicidal activity, velvetleaf; settings: rate of application 0.3 Kg/Ha, rated after 12-17 days
[11] = test system: green foxtail (Setaria viridis); experiment: Preemergence herbicidal activity, green foxtail; settings: Rate of Application 0.3 Kg/Ha, examined after 12-17 days
[12] = test system: blackgrass (Aloepecurus myosuroides); experiment: Preemergence herbicidal activity, blackgrass; settings: Rate of Application 0.3 Kg/Ha, examined after 12-17 days
[13] = test system: soybean (Glycine max var. Winchester); experiment: Postemergence herbicidal activity, soybean; settings: rate of application 0.3 Kg/Ha, rated after 12-17 days
[14] = test system: common chickweed (Stellaria media); experiment: Postemergence herbicidal activity, chickweed; settings: rate of application 0.3 Kg/Ha, rated after 12-17 days
[15] = test system: green foxtail (Setaria viridis); experiment: Postemergence herbicidal activity, green foxtail; settings: rate of application 0.3 Kg/Ha, rated after 12-17 days
[16] = test system: soybean (Glycine max var. Winchester); experiment: Preemergence herbicidal activity, soybean; settings: Rate of Application 0.3 Kg/Ha, examined after 12-17 days
[17] = test system: morningglory (Ipomea lacunosa or Ipomea hederacea); experiment: Preemergence herbicidal activity, morningglory; settings: Rate of Application 0.3 Kg/Ha, examined after 12-17 days
[18] = test system: blackgrass (Aloepecurus myosuroides); experiment: Postemergence herbicidal activity, blackgrass; settings: rate of application 0.3 Kg/Ha, rated after 12-17 days
[19] = test system: wheat (Triticum aestivum var. Lew); experiment: Preemergence herbicidal activity, wheat; settings: Rate of Application 0.3 Kg/Ha, examined after 12-17 days
[20] = test system: Johnsongrass (Sorghum halepense); experiment: Postemergence herbicidal activity, johnsongrass; settings: rate of application 0.3 Kg/Ha, rated after 12-17 days

Row | SMILES | PREEMERGENCE HERBICIDAL ACTIVITY (% CONTROL) CRN [1] | PREEMERGENCE HERBICIDAL ACTIVITY (% CONTROL) STEME [2] | PREEMERGENCE HERBICIDAL ACTIVITY (% CONTROL) SORHA [3] | Postemergence herbicidal activity (% control) XANPE [4] | Postemergence herbicidal activity (% control) WHT [5] | Postemergence herbicidal activity (% control) IPOSS [6] | PREEMERGENCE HERBICIDAL ACTIVITY (% CONTROL) ABUTH [7] | Postemergence herbicidal activity (% control) CRN [8] | PREEMERGENCE HERBICIDAL ACTIVITY (% CONTROL) XANPE [9] | Postemergence herbicidal activity (% control) ABUTH [10] | PREEMERGENCE HERBICIDAL ACTIVITY (% CONTROL) SETVI [11] | PREEMERGENCE HERBICIDAL ACTIVITY (% CONTROL) ALOMY [12] | Postemergence herbicidal activity (% control) SOY [13] | Postemergence herbicidal activity (% control) STEME [14] | Postemergence herbicidal activity (% control) SETVI [15] | PREEMERGENCE HERBICIDAL ACTIVITY (% CONTROL) SOY [16] | PREEMERGENCE HERBICIDAL ACTIVITY (% CONTROL) IPOSS [17] | Postemergence herbicidal activity (% control) ALOMY [18] | PREEMERGENCE HERBICIDAL ACTIVITY (% CONTROL) WHT [19] | Postemergence herbicidal activity (% control) SORHA [20]
1 | CC(C)c1cc2c(Cl)cc(F)c(-n3c(=O)cc(C(F)(F)F)n(C)c3=O)c2o1 [Compound 224] | 90% | 100% | 100% | 100% | 70% | 100% | 100% | 100% | 95% | 100% | 100% | 80% | 95% | 100% | 100% | 100% | 100% | 90% | 80% | –
2 | Cn1c(C(F)(F)F)cc(=O)n(-c2c(F)cc(Cl)c3cc(C(C)(C)C)oc23)c1=O [Compound 227] | 90% | 100% | 100% | 100% | 60% | 100% | 100% | 90% | – | 100% | 100% | 95% | 95% | 100% | 100% | 100% | 100% | 100% | 80% | 100%
3 | CC(OC(C)(C)C)c1cc2c(Cl)cc(F)c(-n3c(=O)cc(C(F)(F)F)n(C)c3=O)c2o1 (centres unmarked) [Compound 244] | 100% | 70% | 100% | 100% | 60% | 100% | 100% | 90% | 100% | 100% | 100% | 70% | 95% | 100% | 100% | 95% | 90% | 75% | 80% | –
4 | CC(C)C(=O)OC(C)c1cc2c(Cl)cc(F)c(-n3c(=O)cc(C(F)(F)F)n(C)c3=O)c2o1 (centres unmarked) [Compound 247] | 90% | 95% | 100% | 100% | 80% | 100% | 100% | 100% | 100% | 100% | 100% | 85% | 95% | 100% | 100% | 100% | 100% | 100% | 90% | –
5 | Cn1c(C(F)(F)F)cc(=O)n(-c2c(F)cc(Cl)c3cc(CCCC#N)oc23)c1=O [Compound 256] | 95% | 100% | 90% | 100% | 80% | 100% | 100% | 90% | – | 100% | 100% | 70% | 100% | 100% | 100% | 100% | 100% | 80% | 80% | 100%
